Literature values in patent US20080070828A1, “Ace-Inhibitory Whey Hydrolysates” (FRIESLAND BRANDS B.V., priority 2004, published 2008).

Columns and labels:
ACE = settings: for Literature IC50 / IC50: ACE-inhibitory peptides from BLG; for IC50: read-out: Literature IC50
hypertensive rats = settings: among 9 identified peptide sequences

Row | Substance | Literature IC50 (ACE) | IC50 (ACE) | IC50 reported in WO 01/85984 (ACE; single hydrolysis step with trypsin or bacterial protease, f142-148 as reference) | antihypertensive activity (hypertensive rats)
1 | f(22-25): ACE-inhibitory peptide from BLG (LAMA; UniProt P02754 38-41, looked up, fragment) | 430 µg/mL | 1060 µM | – | –
2 | f(15-20): ACE-inhibitory peptide from BLG (VAGTWY; UniProt P02754 31-36, looked up, fragment) | 1170 µg/mL | 1680 µM | – | –
3 | f(142-146): ACE-inhibitory peptide from BLG (ALPMH; UniProt P02754 158-162, looked up, fragment) | 296 µg/mL | 521 µM | – | –
4 | f(142-148): peptide isolated from a trypsin hydrolysate of bovine BLG (ALPMHIR; UniProt P02754 158-164, looked up, fragment) | – | 43 µM | 40 µg/mL | –
5 | f(81-83): ACE-inhibitory peptide from BLG (VFK; UniProt P02754 97-99, looked up, fragment) | 404 µg/mL | 1030 µM | – | –
6 | f(146-149): ACE-inhibitory peptide from BLG (HIRL; UniProt P02754 162-165, looked up, fragment) | 620 µg/mL | 1150 µM | – | –
7 | f(106-111): ACE-inhibitory peptide from BLG (CMENSA; UniProt P02754 122-127, looked up, fragment) | 515 µg/mL | 788 µM | – | –
8 | f(32-40): ACE-inhibitory peptide from BLG (LDAQSAPLR; UniProt P02754 48-56, looked up, fragment) | 616 µg/mL | 635 µM | – | –
9 | f(94-100): ACE-inhibitory peptide from BLG (VLDTDYK; UniProt P02754 110-116, looked up, fragment) | 807 µg/mL | 946 µM | – | –
10 | f(9-14): ACE-inhibitory peptide from BLG (GLDIQK; UniProt P02754 25-30, looked up, fragment) | 390 µg/mL | 580 µM | – | –
11 | Ile-Pro-Ala [f(78-80), BLG tripeptide] | 42 µg/mL | 141 µM | – | strongest antihypertensive activity
12 | f(102-105): ACE-inhibitory peptide from BLG (YLLF; UniProt P02754 118-121, looked up, fragment) | 95 µg/mL | 172 µM | – | –
